The values that follow come from patent US7939265B2, “Agents for and method of quantifying binding” (Badrilla Limited, priority 2004, dated 2011).

Usually IC50 stands for the concentration that gives 50% inhibition.

Where no end group is shown, it is not given here. [ ]: non-standard residue; d: D form. pS = N[C@@H](COP(=O)(O)O)C(=O)O

The target in the assay is polyclonal antiserum SERCA PS-38. The experiment in a line: Peptide inhibition of antiserum SERCA PS-38 binding to antigen. On the set-up: species or system rabbit. The note with it: competition against polyclonal antiserum SERCA PS-38. On the procedure:
Phosphorylated Ca^2+-ATPase peptide on Ser-38 residue (^31KLKERWGS (PO4)NEL^41) was prepared by the CaMKII phosphorylation of peptide ^31KLKERWGSNEL^41. The phosphopeptide was purified to homogeneity by reverse phase high performance liquid chromatography. Peptide was conjugated to keyhole limpet haemocyanin (KLH) using carbodiimide cross linkage (3) and dialysed extensively against buffer (50 mM Tris-HCl pH 7.2, 150 mM NaCl). Adult New Zealand White rabbits were immunised with ˜150 μg KLH and attached peptide at 6 weeks intervals and immune serum collected 11 days after immunisations. Serum was prepared and stored at −70° C. A polyclonal antiserum is described herein: SERCA PS-38 raised to the phosphorylated peptide.
The phosphorylation of SERCA2 on Ser-38 has been described as a regulatory feature capable of very significant activation of Ca2+-ATPase activity. This site, although unique to SERCA2, is contained within a segment of the protein which is highly conserved between SERCA1 and SERCA2 particularly from residue 39 onwards. […] By analogy with SERCA1, for which two high resolution structures exist the Ser-38 site of phosphorylation on SERCA2 is predicted to be in a surface exposed, highly mobile segment of the protein. […]

With “31KLKERWGS(PO4)NEL41 (KLKERWG[pS]NEL; UniProt P16615 31-41, looked up, fragment) [phosphopeptide]”, under “read-out: inhibition of antibody binding to antigen (IC50)”, the IC50 was 18 nM.

With “31KLKERWGSNEL41 (UniProt P16615 31-41, looked up, fragment) [dephosphorylated peptide, equivalent dephosphorylated SERCA2a Ser-38 peptide]”, the “interference with antibody:antigen recognition” value is “unable to interfere with antibody:antigen recognition”.
